Data set [1] in a line: Drug metabolism in Sprague-Dawley rat plasma by LC-MS/MS analysis. As to conditions: 5 h, 1 µM. Format: ADME, cell-free.
Data set [2] concerns Hepatocyte. As to the kind of experiment: Cytotoxicity against human primary hepatocytes isolated from DZM donor at 0.1 to 10 uM incubated for 72 hrs by cytotox-glo assay. The note with it: dose 0.1-10 µM. The data set is classed as toxicity, cell-based.
The target of the next data set is Cytochrome P450 2C19 (Homo sapiens, UniProt P33261). In words: Inhibition of CYP2C19 in human liver microsomes in the presence of NADPH incubated for 60 mins by LC-MS/MS analysis. The data set is classed as ADME, Microsome. (Microsomes from liver hold many membrane-bound enzymes, among them those of drug oxidation.)
Chain of Cytochrome P450 2C19 (P33261 whole entry): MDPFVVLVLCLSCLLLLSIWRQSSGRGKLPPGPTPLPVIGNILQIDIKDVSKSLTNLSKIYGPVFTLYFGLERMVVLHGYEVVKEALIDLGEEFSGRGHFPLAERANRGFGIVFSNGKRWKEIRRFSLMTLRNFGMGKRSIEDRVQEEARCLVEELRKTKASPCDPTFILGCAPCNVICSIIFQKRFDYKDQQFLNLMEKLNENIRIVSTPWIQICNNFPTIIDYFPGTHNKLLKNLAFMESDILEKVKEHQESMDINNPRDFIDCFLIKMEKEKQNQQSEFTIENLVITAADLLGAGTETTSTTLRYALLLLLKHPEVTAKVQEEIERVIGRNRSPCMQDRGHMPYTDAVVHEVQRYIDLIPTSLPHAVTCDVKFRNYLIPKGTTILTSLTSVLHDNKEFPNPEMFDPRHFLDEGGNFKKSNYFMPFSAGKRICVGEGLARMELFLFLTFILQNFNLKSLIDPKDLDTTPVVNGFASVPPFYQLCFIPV
Data set [3] is described as follows: Drug metabolism in CD-1 mouse plasma by LC-MS/MS analysis. The note with it: 5 h, 1 µM. Format: ADME, cell-free.
The test system of data set [4] is LoVo. In words: Antitumor activity against human LoVo cells xenografted in female Balb/c nude mouse assessed as tumor growth inhibition at 20 mg/kg QD, po measured every 3 days for 25 days relative to control. The data set is classed as functional. The note with it: 600 h, time 25 day, read-out: TGI. For orientation: Xenograft models place foreign cells or tissue in a host animal.

For data set [5], the system named is LoVo. As to the kind of experiment: Induction of apoptosis in human LoVo cells assessed as necrotic cells at 1 uM incubated for 24 hrs by Annexin-V-FITC-PI staining based flow cytometric analysis (reference value: 0.97 %). Format: functional.
A further data set deals with CYP2C8 (Homo sapiens, UniProt P10632). As to the kind of experiment: Inhibition of recombinant human CYP2C8 assessed as residual activity at 1 uM in the presence of NADPH incubated for 60 mins by LC-MS/MS analysis relative to control. The note with it: read-out: Activity. Format: ADME.
Chain of CYP2C8 (P10632 whole entry): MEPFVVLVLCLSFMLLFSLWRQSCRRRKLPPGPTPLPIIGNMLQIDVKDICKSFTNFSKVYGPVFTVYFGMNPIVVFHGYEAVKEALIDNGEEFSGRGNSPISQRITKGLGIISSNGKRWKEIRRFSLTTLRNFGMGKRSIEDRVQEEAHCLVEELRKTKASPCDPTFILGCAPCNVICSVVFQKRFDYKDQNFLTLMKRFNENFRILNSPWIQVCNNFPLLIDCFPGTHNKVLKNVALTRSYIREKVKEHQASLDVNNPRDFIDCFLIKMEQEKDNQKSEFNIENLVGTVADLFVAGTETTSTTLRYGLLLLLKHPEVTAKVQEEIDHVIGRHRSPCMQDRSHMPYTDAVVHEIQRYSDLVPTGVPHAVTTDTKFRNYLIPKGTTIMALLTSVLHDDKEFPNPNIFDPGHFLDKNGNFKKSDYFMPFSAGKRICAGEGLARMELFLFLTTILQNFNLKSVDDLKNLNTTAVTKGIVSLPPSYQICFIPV
In data set [6] the test system is Hepatocyte. In words: Cytotoxicity against human primary hepatocytes isolated from RAS donor at 0.1 to 10 uM incubated for 72 hrs by cytotox-glo assay. As to conditions: dose 0.1-10 µM. The data set is classed as toxicity, cell-based.
The subject of the next data set is JeKo-1. As to the kind of experiment: Antitumor activity against human JeKo-1 cells xenografted in female CB17 SCID mouse assessed as tumor growth inhibition at 30 mg/kg BID, po measured every 2 days for 24 days relative to control. Format: functional. As to conditions: JeKo-1, 576 h, time 24 day, read-out: TGI.
Data set [7] deals with LoVo. As to the kind of experiment: Induction of apoptosis in human LoVo cells assessed as viable cells at 3 uM incubated for 24 hrs by Annexin-V-FITC-PI staining based flow cytometric analysis (reference value: 72.1 %). The data set is classed as functional. As to conditions: read-out: Activity.
Data set [8] is described as follows: Toxicity in Sprague-Dawley rats assessed as effect on central nervous system at 10 to 40 mg/kg, po administrated as single dose upto 24 hrs. Format: organism-based. The note with it: rat, in vivo, dose 10-40 mg/kg.
Another data set has as its system NCI-H1703. In words: Synergistic antitumor activity against human NCI-H1703 cells xenografted in female Balb/c nude mouse assessed as tumor growth inhibition co administered with Gemcitabine at 40 mg/kg QD, po administered as 3 days on and 4 days off schedule for 4 weeks relative to control. As to conditions: NCI-H1703, 672 h, time 28 day, read-out: TGI. Format: functional.

Data set [9] can be described thus: Toxicity in male Balb/c nude mouse xenografted with human 22Rv1 cells assessed as body weight at 40 mg/kg QD, po measured every 3 days for 25 days at 10 to 60 mg/kg QD, po measured every 3 days for 18 days. The data set is classed as organism-based. The note with it: in vivo, 432 h, time 18 day.
Data set [10] in a line: Drug metabolism in CD-1 mouse liver cells at 2 uM incubated upto 120 mins by LC-MS/MS analysis. As to conditions: 2 h. The data set is classed as ADME, cell-based.

Consider one compound from ChEMBL document CHEMBL6103629 (J Med Chem, 2025).

By IC50 is commonly meant the concentration that inhibits the measured activity by half.

For `Cc1nn(-c2cccnc2)c(C)c1-c1cc(N2CC3CCC(C2)O3)nc2c(-c3ccn[nH]3)cnn12.O=C(O)/C=C/C(=O)O`, the Drug metabolism result is given as “metabolite_notdetected” in [1], “metabolite_notdetected” in [3] and “metabolite_detected” in [10]. Also, the Activity entry in the data set on Hepatocyte [2] is given as “Non-toxic”; with LoVo [5], 0.8%; in the data set with Hepatocyte [6], “Non-toxic”; in data set [8], “Non-toxic”; in [9], “Non-toxic”. Besides, the 50% inhibitory concentration (IC50) on Cytochrome P450 2C19 amounted to 54.2 µM. Besides, the inhibition in vivo at 20 mg/kg in the data set with LoVo [4] was determined as 26.9%. Moreover, the activity at 1 h, 1 µM on CYP2C8 was found to be 16.3%. Besides, the inhibition in vivo at 30 mg/kg in the data set with JeKo-1 is 96.4%. The viability at 3 µM in the data set with LoVo [7] turned out to be 53.7%. For the same compound, the inhibition in vivo at 40 mg/kg with NCI-H1703 turned out to be 92.9%.
